Converted amounts (≈) assume the structure as drawn.
Test: Kinetic solubility analysis
Type: physicochemical
Settings: 1× PBS, 24.2 °C, aqueous buffer, kinetic from dmso stock; pH 7.4 PBS, 1% DMSO, 24-hour incubation at ambient temperature
Method: Example 108: Kinetic Solubility Analysis
Buffer Preparation: 0.1 N HCl: Hydrochloric acid, 0.1 N standardized solution (MP Biomedicals part number 199569). 1×PBS, pH 7.4: Phosphate Buffered Saline (PBS) solution 10× (Fisher Bioreagent part number BP399-500) 50 mL was added to approximately 450 mL HPLC grade H2O. The volume of the solution was then adjusted to 500 mL for a total dilution factor of 1:10 and a final PBS concentration of 1×.
The final DMSO concentration was 1.0% (v/v) and maximum theoretical compound concentration is 100 μM (for compound stock concentration of 10 mM). The filter plate was sealed. Following 24-hour incubation at ambient temperature (24.2-27.5° C.), the samples were vacuum filtered and the filtrates were collected in a 96 well polypropylene plate for analysis. The collection plate was sealed for analysis. Filtrates were injected into the Antek 8060 chemiluminescent nitrogen detector for quantification. The results are reported in μM.
The filtrates were quantified with respect to this calibration curve. Each calculated solubility value was corrected for background nitrogen present in the DMSO and in the medium used to prepare the sample. All reported values for compounds containing adjacent nitrogen atoms in a ring structure were increased by approximately 25%.

| Structure (SMILES) | solubility kinetic at 24 h |
| --- | --- |
| CC(C)CCCCOC(=O)C(C)(C)NP(=O)(CO[C@H](C)Cn1cnc2c(N)ncnc21)NC(C)(C)C(=O)OCCCCC(C)C [Example 68, Bis(5-methylhexyl) 2,2′-(((((1-(6-amino-9H-purin-9-yl)propan-2-yl)oxy)methyl)phosphoryl)bis(azanediyl))(R)-bis(2-methylpropanoate)] | 3 µg/mL (≈ 4.59 µM) |
| CCCCCCOC(=O)C(C)(C)NP(=O)(CO[C@H](C)Cn1cnc2c(N)ncnc21)NC(C)(C)C(=O)OCC1(F)CC1 (stereo partly drawn) [Example 78, (1-Fluorocyclopropyl)methyl 2-((((((R)-1-(6-amino-9H-purin-9-yl)propan-2-yl)oxy)methyl)((1-(hexyloxy)-2-methyl-1-oxopropan-2-yl)amino)phosphoryl)amino)-2-methylpropanoate] | 60 µg/mL (≈ 97.8 µM) |
| CC(C)CCOC(=O)C(C)(C)NP(=O)(CO[C@H](C)Cn1cnc2c(N)ncnc21)NC(C)(C)C(=O)OCCC(C)C [Example 6, Diisopentyl 2,2′-(((((1-(6-amino-9H-purin-9-yl)propan-2-yl)oxy)methyl)phosphoryl)bis(azanediyl))(R)-bis(2-methylpropanoate)] | 49 µg/mL (≈ 82 µM) |
| C[C@H](Cn1cnc2c(N)ncnc21)OCP(=O)(NC(C)(C)C(=O)OCC1CCCC1)NC(C)(C)C(=O)OCC1CCCC1 [Example 45, Bis(cyclopentylmethyl) 2,2′-(((((1-(6-amino-9H-purin-9-yl)propan-2-yl)oxy)methyl)phosphoryl)bis(azanediyl))(R)-bis(2-methylpropanoate)] | 64 µg/mL (≈ 103 µM) |
| CC(C)OC(=O)C(C)(C)NP(=O)(CO[C@H](C)Cn1cnc2c(N)ncnc21)NC(C)(C)C(=O)OC(C)C [Example 43, Diisopropyl 2,2′-(((((1-(6-amino-9H-purin-9-yl)propan-2-yl)oxy)methyl)phosphoryl)bis(azanediyl))(R)-bis(2-methylpropanoate)] | 53 µg/mL (≈ 97.9 µM) |
| C[C@H](Cn1cnc2c(N)ncnc21)OCP(=O)(NC(C)(C)C(=O)OC1CCC1)NC(C)(C)C(=O)OC1CCC1 [Example 47, Dicyclobutyl 2,2′-(((((1-(6-amino-9H-purin-9-yl)propan-2-yl)oxy)methyl)phosphoryl)bis(azanediyl))(R)-bis(2-methylpropanoate)] | 72 µg/mL (≈ 127 µM) |
| C[C@H](Cn1cnc2c(N)ncnc21)OCP(=O)(NC(C)(C)C(=O)OC1CCC(C)(C)CC1)NC(C)(C)C(=O)OC1CCC(C)(C)CC1 [Example 44, Bis(4,4-dimethylcyclohexyl) 2,2′-(((((1-(6-amino-9H-purin-9-yl)propan-2-yl)oxy)methyl)phosphoryl)bis(azanediyl))(R)-bis(2-methylpropanoate)] | 10 µg/mL (≈ 14.8 µM) |
| CCCCCCOC(=O)C(C)(C)NP(=O)(CO[C@H](C)Cn1cnc2c(N)ncnc21)NC(C)(C)C(=O)O[C@H]1CC[C@H](C(F)(F)F)CC1 (stereo partly drawn) [Example 22, Hexyl 2-((((((R)-1-(6-amino-9H-purin-9-yl)propan-2-yl)oxy)methyl)((2-methyl-1-oxo-1-((trans-4-(trifluoromethyl)cyclohexyl)oxy)propan-2-yl)amino)phosphoryl)amino)-2-methylpropanoate] | 36 µg/mL (≈ 52 µM) |
| CCCCOC(=O)C(C)(C)NP(=O)(CO[C@H](C)Cn1cnc2c(N)ncnc21)NC(C)(C)C(=O)OCCCC [Example 38, Dibutyl 2,2′-(((((1-(6-amino-9H-purin-9-yl)propan-2-yl)oxy)methyl)phosphoryl)bis(azanediyl))(R)-bis(2-methylpropanoate)] | 45 µg/mL (≈ 79 µM) |
| CCCCCCOC(=O)C(C)(C)NP(=O)(CO[C@H](C)Cn1cnc2c(N)ncnc21)NC(C)(C)C(=O)OC(C)C1CC1 (stereo partly drawn) [Example 81, 1-Cyclopropylethyl 2-((((((R)-1-(6-amino-9H-purin-9-yl)propan-2-yl)oxy)methyl)((1-(hexyloxy)-2-methyl-1-oxopropan-2-yl)amino)phosphoryl)amino)-2-methylpropanoate] | 61 µg/mL (≈ 100 µM) |
| CCC(CC)COC(=O)C(C)(C)N[P@@](=O)(CO[C@H](C)Cn1cnc2c(N)ncnc21)NC1(C(=O)OCC(CC)CC)CC1 [Example 72, 2-Ethylbutyl 1-(((S)-((((R)-1-(6-amino-9H-purin-9-yl)propan-2-yl)oxy)methyl)((1-(2-ethylbutoxy)-2-methyl-1-oxopropan-2-yl)amino)phosphoryl)amino)cyclopropane-1-carboxylate] | 35 µg/mL (≈ 56.1 µM) |
| CCC(CC)CCOC(=O)C(C)(C)NP(=O)(CO[C@H](C)Cn1cnc2c(N)ncnc21)NC(C)(C)C(=O)OCCC(CC)CC [Example 7, Bis(3-ethylpentyl) 2,2′-(((((1-(6-amino-9H-purin-9-yl)propan-2-yl)oxy)methyl)phosphoryl)bis(azanediyl))(R)-bis(2-methylpropanoate)] | 7 µg/mL (≈ 10.7 µM) |
| C[C@H](Cn1cnc2c(N)ncnc21)OCP(=O)(NC(C)(C)C(=O)OCC(C)(C)C)NC(C)(C)C(=O)OCC(C)(C)C [Example 5] | 53 µg/mL (≈ 88.7 µM) |
| C[C@H](Cn1cnc2c(N)ncnc21)OCP(=O)(NC(C)(C)C(=O)OCCC(C)(C)C)NC(C)(C)C(=O)OCCC(C)(C)C [Example 8, Bis(3,3-dimethylbutyl) 2,2′-(((((1-(6-amino-9H-purin-9-yl)propan-2-yl)oxy)methyl)phosphoryl)bis(azanediyl))(R)-bis(2-methylpropanoate)] | 50 µg/mL (≈ 79.9 µM) |
| CCCCCCOC(=O)[C@](C)(CC)NP(=O)(CO[C@H](C)Cn1cnc2c(N)ncnc21)N[C@@](C)(CC)C(=O)OCCCCCC [Example 10, Dihexyl 2,2′-((((((R)-1-(6-amino-9H-purin-9-yl)propan-2-yl)oxy)methyl)phosphoryl)bis(azanediyl))(2S,2′S)-bis(2-methylbutanoate)] | 7 µg/mL (≈ 10.7 µM) |
| C[C@H](Cn1cnc2c(N)ncnc21)OCP(=O)(NC(C)(C)C(=O)OCCCCC(F)(F)F)NC(C)(C)C(=O)OCCCCC(F)(F)F [Example 25, Bis(5,5,5-trifluoropentyl) 2,2′-(((((1-(6-amino-9H-purin-9-yl)propan-2-yl)oxy)methyl)phosphoryl)bis(azanediyl))(R)-bis(2-methylpropanoate)] | 84 µg/mL (≈ 119 µM) |
| C[C@H](Cn1cnc2c(N)ncnc21)OCP(=O)(NC(C)(C)C(=O)OC1CC(C)(C)C1)NC(C)(C)C(=O)OC1CC(C)(C)C1 [Example 42, Bis(3,3-dimethylcyclobutyl) 2,2′-(((((1-(6-amino-9H-purin-9-yl)propan-2-yl)oxy)methyl)phosphoryl)bis(azanediyl))(R)-bis(2-methylpropanoate)] | 54 µg/mL (≈ 86.9 µM) |
| C[C@H](Cn1cnc2c(N)ncnc21)OCP(=O)(NC(C)(C)C(=O)O[C@H]1C[C@H](C(F)(F)F)C1)NC(C)(C)C(=O)O[C@H]1C[C@H](C(F)(F)F)C1 [Example 26, Bis(trans-3-(trifluoromethyl)cyclobutyl) 2,2′-((((((R)-1-(6-amino-9H-purin-9-yl)propan-2-yl)oxy)methyl)phosphoryl)bis(azanediyl))bis(2-methylpropanoate)] | 78 µg/mL (≈ 111 µM) |
| C[C@H](Cn1cnc2c(N)ncnc21)OCP(=O)(NC(C)(C)C(=O)OC1CC2(CCC2)C1)NC(C)(C)C(=O)OC1CC2(CCC2)C1 (stereo partly drawn) [Example 41, Di(spiro[3.3]heptan-2-yl) 2,2′-(((((1-(6-amino-9H-purin-9-yl)propan-2-yl)oxy)methyl)phosphoryl)bis(azanediyl))(R)-bis(2-methylpropanoate)] | 54 µg/mL (≈ 83.6 µM) |
| C[C@H](Cn1cnc2c(N)ncnc21)OCP(=O)(NC(C)(C)C(=O)O[C@H]1C[C@@H](c2ccccc2)C1)NC(C)(C)C(=O)O[C@H]1C[C@@H](c2ccccc2)C1 [Example 85, Bis((1s,3S)-3-phenylcyclobutyl) 2,2′-((((((R)-1-(6-amino-9H-purin-9-yl)propan-2-yl)oxy)methyl)phosphoryl)bis(azanediyl))bis(2-methylpropanoate)] | 6 µg/mL (≈ 8.36 µM) |
| CCCCCCOC(=O)C(C)(C)NP(=O)(CO[C@H](C)Cn1cnc2c(NC(=O)CCC)ncnc21)NC(C)(C)C(=O)OCCCCCC [Example 29, Dihexyl 2,2′-(((((1-(6-butyramido-9H-purin-9-yl)propan-2-yl)oxy)methyl)phosphoryl)bis(azanediyl))(R)-bis(2-methylpropanoate)] | 26 µg/mL (≈ 37.4 µM) |
| CCCCCCOC(=O)C(C)(C)NP(=O)(CO[C@H](C)Cn1cnc2c(N)ncnc21)NC(C)(C)C(=O)OCC(C)(C)OC (stereo partly drawn) [Example 79, Hexyl 2-((((((R)-1-(6-amino-9H-purin-9-yl)propan-2-yl)oxy)methyl)((1-(2-methoxy-2-methylpropoxy)-2-methyl-1-oxopropan-2-yl)amino)phosphoryl)amino)-2-methylpropanoate] | 68 µg/mL (≈ 108 µM) |
| CCCCCCOC(=O)C(C)(C)NP(=O)(CO[C@H](C)Cn1cnc2c(N)ncnc21)NC1(C(=O)OCCCCCC)CC1 (stereo partly drawn) [Example 20, Hexyl 1-((((((R)-1-(6-amino-9H-purin-9-yl)propan-2-yl)oxy)methyl)((1-(hexyloxy)-2-methyl-1-oxopropan-2-yl)amino)phosphoryl)amino)cyclopropane-1-carboxylate] | 49 µg/mL (≈ 78.6 µM) |
| CCCCCCOC(=O)[C@](C)(Cc1ccccc1)NP(=O)(CO[C@H](C)Cn1cnc2c(N)ncnc21)N[C@@](C)(Cc1ccccc1)C(=O)OCCCCCC [Example 11, Dihexyl 2,2′-((((((R)-1-(6-amino-9H-purin-9-yl)propan-2-yl)oxy)methyl)phosphoryl)bis(azanediyl))(2S,2'S)-bis(2-methyl-3-phenylpropanoate)] | < 1 µg/mL |

Reference: patent US20230303599A1, “PRODRUGS OF PHOSPHONAMIDE NUCLEOTIDE ANALOGUES AND THEIR PHARMACEUTICAL USE” (priority 2020, published 2023)
